Key:
DU-145 = assay type: cell-based, Human; conditions: DU-145, 48 hours
FADU = assay type: cell-based, Human; conditions: FADU, 48 hours
NCI-H460 = assay type: cell-based, Human; conditions: NCI-H460, 48 hours
SW1736 = assay type: cell-based, Human; conditions: SW1736, 48 hours
SK-N-SH = assay type: cell-based, Human; conditions: SK-N-SH, 48 hours
BXPC-3 = assay type: cell-based, Human; conditions: BXPC-3, 48 hours
[1] = test system: P388 lymphocytic leukemia; assay type: cell-based, Murine; conditions: murine P-388 leukemia, 48 hours
[2] = test system: eight bacteria and two fungi tested; assay: Disk susceptibility testing, whole microbe panel; assay type: cell-based; conditions: at 100 μg/disk, eight bacteria and two fungi
Solubility in water = conditions: mg per 1 ml water at 25° C.
SK-Mel-3 = assay type: cell-based, Human; conditions: SK-Mel-3, 48 hours
Neisseria gonorrhoeae = assay type: cell-based; conditions: Neisseria gonorrhoeae, disk susceptibility

Molecule | GI50 Prostate DU-145 (DU-145) [µg/mL] | GI50 Pharynx FADU (FADU) [µg/mL] | GI50 Lung-NSC NCI-H460 (NCI-H460) [µg/mL] | GI50 Thyroid SW1736 (SW1736) [µg/mL] | GI50 Neuroblast SK-N-SH (SK-N-SH) [µg/mL] | GI50 Pancreas BXPC-3 (BXPC-3) [µg/mL] | ED50 P-388 [1] [µg/mL] | Microbe(s) inhibited [2] | Solubility (Solubility in water) [µg/mL] | GI50 Melanoma SK-Mel-3 (SK-Mel-3) [µg/mL] | Minimum inhibitory amount per disk (Neisseria gonorrhoeae)
COc1ccc(/C=C\c2cc(OC)c(OC)c(OC)c2)cc1OP(=O)([O-])[O-].[Mg+2] [Compound 5d, Magnesium combretastatin A-4 3-O-phosphate] | 0.01 | 0.031 | 0.017 | 6.8 | 0.01 | 0.43 | 0.0018 | * (At 100 μg/disk no inhibition of the eight bacteria and two fungi tested.) | 7000 | – | –
Adenosine combretastatin A-4 3′-O-phosphate [Compound 5m] | 0.036 | 0.032 | 0.038 | 0.092 | 0.034 | 11.6 | 0.16 | * (At 100 μg/disk no inhibition of the eight bacteria and two fungi tested.) | – | 0.35 | –
Calcium combretastatin A-4 3′-O-phosphate [Compound 5a] | 0.001 | 0.001 | 0.001 | 0.010 | 0.015 | 0.22 | 0.0011 | * (At 100 μg/disk no inhibition of the eight bacteria and two fungi tested.) | – | 0.0036 | –
Cesium combretastatin A-4 3′-O-phosphate [Compound 5b] | 0.0028 | 0.0023 | 0.0032 | 8.4 | 0.011 | 0.31 | 0.001 | * (At 100 μg/disk no inhibition of the eight bacteria and two fungi tested.) | >50000 | 0.0043 | –
Cinchonine combretastatin A-4 3-O-phosphate [Compound 5n] | 0.030 | 0.024 | 0.037 | 0.089 | – | 1.6 | 0.020 | – | 4000 | – | 25–50 μg/disk
Glucosamine combretastatin A-4 3′-O-phosphate [Compound 5o] | 0.026 | 0.015 | 0.034 | 0.061 | 0.016 | 4.5 | 0.0164 | * (At 100 μg/disk no inhibition of the eight bacteria and two fungi tested.) | 15000 | – | –
Imidazole combretastatin A-4 3-O-phosphate [Compound 5g] | 0.001 | 0.01 | 0.004 | 0.011 | 0.01 | 0.39 | 0.0025 | * (At 100 μg/disk no inhibition of the eight bacteria and two fungi tested.) | – | 0.01 | –
Lithium combretastatin A-4 3-O-phosphate [Compound 5c] | 0.0025 | 0.003 | 0.004 | 0.030 | 0.016 | 0.31 | 0.0012 | * (At 100 μg/disk no inhibition of the eight bacteria and two fungi tested.) | – | – | –
Morpholine combretastatin A-4 3′-O-phosphate [Compound 5h] | 0.0024 | 0.0016 | 0.003 | 0.02 | 0.039 | 0.26 | 0.0023 | * (At 100 μg/disk no inhibition of the eight bacteria and two fungi tested.) | – | 0.0042 | –
Piperidine combretastatin A-4 3′-O-phosphate [Compound 5j] | 0.01 | 0.01 | 0.01 | 0.50 | 0.017 | 0.30 | 0.0029 | * (At 100 μg/disk no inhibition of the eight bacteria and two fungi tested.) | 5000 | 0.01 | –
Pyrazole combretastatin A-4 3-O-phosphate [Compound 5k] | 0.01 | 0.01 | 0.01 | 4.6 | 0.014 | 0.23 | 0.0023 | * (At 100 μg/disk no inhibition of the eight bacteria and two fungi tested.) | – | 0.01 | –
Pyridine combretastatin A-4 3′-O-phosphate [Compound 5l] | 0.036 | 0.032 | 0.038 | 0.01 | 0.03 | 11.6 | <0.001 | * (At 100 μg/disk no inhibition of the eight bacteria and two fungi tested.) | 3000 | 0.35 | –
Quinidine combretastatin A-4 3-O-phosphate [Compound 5q] | 0.0036 | 0.0033 | 0.0039 | 0.11 | – | 0.43 | 0.0032 | – | – | – | 6.25–12.5 μg/disk
Quinine combretastatin A-4 3′-O-phosphate [Compound 5p] | 0.0048 | 0.006 | 0.0042 | 7.5 | – | 2.2 | 0.027 | * (At 100 μg/disk no inhibition of the eight bacteria and two fungi tested.) | – | – | –
Zinc combretastatin A-4 3′-O-phosphate [Compound 5f] | 0.0062 | 0.0070 | 0.0074 | 0.059 | 0.024 | 1.1 | 0.0343 | * (At 100 μg/disk no inhibition of the eight bacteria and two fungi tested.) | 11000 | 1.0 | –

Reference: US7018987B1 (priority 1998, dated 2006)
